# Laboratory results as given in US20150118221A1, “COMPOSITIONS AND METHODS FOR TREATING CARDIAC HYPERTROPHY” (THE JOHNS HOPKINS UNIVERSITY, priority 2012, published 2015).
# Entries after “also recorded” stand apart in the source; their conditions may differ.
# What was measured:
# [1] = cited from earlier work
# apoE−/− mice [2] = test: M-mode echocardiography (fractional shortening, LV mass, wall thickness) in apoE−/− mice on high fat and cholesterol diet; format: in vivo, mouse
# Protocol: Apoliporotein E-deficient (ApoE (−/−), male aged 11 weeks were purchased from the Jackson Laboratory, Bar Harbor, Me. At the age of 12 weeks, the Apo E(−/−) mice were started on a high fat and high cholesterol diet (HFHC) consisting of 20% fat, and 1.25% cholesterol (D12108C, Research Diet Inc., New Brunswick, N.J.) for 20 to 36 weeks with and without treatment with D-PDMP (5 mg/kg, 10 mg/kg) and compared to control fed only chow diet and placebo mice fed HFHC+Vehicle (composed of 5% Tween-80 in phosphate buffered saline). Diet was rationed once a week to estimate the weekly growth rate and food intake. Physiological studies were performed around the age of 12, 20 and 36 weeks. Blood was drawn to prepare serum and heart tissues were harvested and studied at molecular and histopathological level. Tissues were harvested at 12, 20 and 36 weeks of age.
# Animals were subject to physiological measurements, e.g., weight, blood pressure, ultra sound to measure fractional shortening (FS), left ventricular mass (LVM), heart weight to tibia length ratio, heart anatomy etc. A group of mice (N=5) were euthanized to obtain base line values for aorta and blood samples were collected. The rest of the mice were divided in to several groups. These were: Placebo (mice fed vehicle only (5% Tween-80 in phosphate buffered saline), 5 mpk D-PDMP solubilized in vehicle and 10 mpk D-PDMP solubilized in vehicle). Placebo and D-PDMP was delivered daily by oral gavage. The physiological measurements were repeated at 20 weeks and 36 week interval and then the mice were euthanized by asphyxia. This protocol was approved by the committee for research on animals at the Johns Hopkins University.
# (§1) Trans-thoracic echocardiography was performed in conscious mice using the 2100 Visualsonic ultrasound device (Toronto, Ontario, Canada), and the Sequoia Acuson C256 (Malvern, Pa.) system, equipped with a 40 MHz and 15 MHz linear transducer, respectively. M-mode echocardiogram was obtained in the parasternal short axes view of the left ventricle (LV) at the level of the papillary muscles and at sweep speed of 200 mm/sec.
# (§2) LV mass (mg): 1.055[(IVSD+LVEDD+PWTED)^3−(LVEDD)^3],
# [3] = system: lactosylceramide synthase; test: Lactosylceramide synthase activity in aorta tissue of D-PDMP-fed apoE−/− mice; conditions: hyperlipidemic diet; for decrease of LCS activity as compared to hyperlipidemic mouse aorta: 20 week old apoE−/− mice
# p44MAPK = test: Western immunoblot of p44MAPK in heart tissue
# apoE−/− mice [4] = test: Histology of aorta and heart tissue (wall thickening, fibrosis, plaque accumulation); format: in vivo, mouse; conditions: FIG. 5
# Text: H&E, Masson's trichrome stained aorta and heart tissue was used for histological analysis for cardiovascular wall thickening and plaque accumulation.
# apoE−/− mice [5] = test: Ultrasound imaging of aortic intima media thickening (AoIMT); conditions: for aortic intima media thickening (AoIMT): 16 and 20 week old mice
# [6] = molecular target: T1, glucosylceramide synthase (Mus musculus, UniProt O88693); test: Glucosylceramide synthase activity in aorta tissue of D-PDMP-fed apoE−/− mice; conditions: 5 and 10 mpk, hyperlipidemic diet, HCl
# T1 sequence (O88693 1-394): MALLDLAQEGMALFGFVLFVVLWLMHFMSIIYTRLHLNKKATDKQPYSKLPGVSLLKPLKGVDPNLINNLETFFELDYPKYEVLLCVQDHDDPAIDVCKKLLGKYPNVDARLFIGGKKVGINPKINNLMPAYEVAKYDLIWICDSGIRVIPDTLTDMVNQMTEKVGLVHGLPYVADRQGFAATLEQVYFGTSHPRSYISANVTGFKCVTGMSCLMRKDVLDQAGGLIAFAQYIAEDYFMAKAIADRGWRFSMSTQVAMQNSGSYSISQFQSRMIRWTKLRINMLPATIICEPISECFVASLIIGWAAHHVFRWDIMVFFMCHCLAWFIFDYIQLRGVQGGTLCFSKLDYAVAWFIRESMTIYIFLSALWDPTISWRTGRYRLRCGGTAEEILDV
# glycosphingolipids [7] = test: HPLC analysis of glycosphingolipid levels in heart tissue, apoE−/− mice; format: in vivo, mouse
# Protocol: (§3) Approximately 10 mg of heart tissue was homogenized in chloroform-methanol (2:1, v/v) and lipids were extracted. Bligh et al., 37.8 CAN. J. BIOCHEM. AND PHYSIOL. 911-17 (1959). The total lipid extracts were dried in nitrogen and subject to deacylation using sphingosine ceramide N-deacylation.
# [8] = molecular target: T1, glucosylceramide synthase; test: Glucosylceramide synthase activity in heart tissue of apoE−/− mice; format: in vivo; conditions: 5 mpk and 10 mpk, 20 weeks and 36 weeks
# Protocol: (§4) Approximately 10 mg of heart tissue were homogenized in Tris buffer (pH 7.8) and centrifuged at 10,000 rpm for 10 min. The supernatant was used as a source for enzyme. [^3H]UDP-Gal (American Radiolabled company, St Louis, Mo.) served as the nucleotide sugar donor in LacCer synthase assay and [^3H]UDP-Glc served as the nucleotide sugar donor in GlcCer synthase assay. The details of these assays have been described previously. See Chatterjee, S., 311 METHODS IN ENZYMOLOGY 73-81 (2000). All assays were conducted in triplicate from 3 to 5 aorta samples from mice in each group.
# apoE−/− mice [9] = test: Blood pressure, CODA tail cuff system; format: in vivo, mouse
# Protocol: (§5) Aortic pulse wave velocity (PWV) was measured with mice placed supine under anesthesia with 1.5% isoflurane. An ECG-triggered, 2-mm, 10-MHz Doppler probe was used to measure blood flow at the thoracic and abdominal aorta. PWV was calculated by the thoracic-abdominal distance divided by the pulse transit time between the thoracic and abdominal measurement sites. Blood pressure was acquired using the CODA tail cuff system (Kent Scientific Co, USA) to measure systolic and diastolic pressure. Estimated the effect of mean pressure (MP(mmHg) on PWV (m/sec) was calculated using the following equation: PWVc=0.0006(MP)^2-0.0564MP+3.9711.
# [10] = system: hypertrophic marker, antioxidant and collagen gene mRNA; conditions: 10 mpk, left ventricular tissue
# glycosphingolipids [11] = test: HPLC analysis of glycosphingolipid levels in heart tissue, TAC mice; format: in vivo, mouse; conditions: mice subject to trans-aortic constriction
# Protocol: as §3
# TGFβ = test: Western blot of TGFβ in left ventricular heart homogenates; format: in vivo, mouse; conditions: 5 mpk and 10 mpk
# Protocol: FIG. 16. TGFβ over expression in hypertrophic mouse heart is mitigated by the use of D-PDMP. Left ventricular heart homogenates were prepared from placebo, 5 mpk and 10 mpk treated mouse hearts. Western blot analysis was done using anti TGFβ antibody. Expression levels of GAPDH were used to normalize the protein expression. Expression levels were quantified by using Image J v.1.45s (NIH, USA) software. (a) Western immunoblot of TGF-β. (b) Corresponding densitomeric scan.
# [12] = system: C57Bl-6 mice subject to trans-aortic constriction; test: M-mode echocardiography after trans-aortic constriction (TAC); format: in vivo, mouse; conditions: D-PDMP fed for a week before surgery, vs sham
# Protocol: Normal male mice (C57B1-6), 11 weeks old, were also purchased from the Jackson Laboratory, Bar Harbor, Me.). After having measured the basal physiologic parameters such as blood pressure, weight, and ultra sound measurements, the 9 mice were divided as follows. Six mice were given 100 μL of vehicle (5% Tween-80 in phosphate—buffered saline) by oral gavage. The other three mice were fed 10 mpk of D-PDMP solubilized in vehicle. This procedure was continued for 7 days. Next, 3 mice in mice fed vehicle group and 3 mice fed D-PDMP were subject to trans-aortic constriction (Cingolani et al., 109 CIRC. RES. 00-00 (2011). At one week, two week and six weeks post-surgery, the mice were subjected to M mode ultrasound analysis. Finally, blood was drawn, and the animals were euthanized. The heart was excised, sliced in halves and its anatomy photographed.
# as §1, §2
# oxidized -LDL = test: Serum level of oxidized LDL in apoE−/− mice fed western diet; format: in vivo, mouse
# [13] = system: lactosylceramide synthase; test: Lactosylceramide synthase activity in heart tissue of apoE−/− mice; format: in vivo, mouse; conditions: 5 mpk and 10 mpk, 20 weeks and 36 weeks
# Protocol: as §4
# apoE−/− mice [14] = test: Aortic pulse wave velocity (PWV), arterial stiffness; format: in vivo, mouse; conditions: 10 mpk, compared to 5 mpk D-PDMP and placebo
# Protocol: as §5
# [15] = HCHF fed apoE−/− mice, to base line levels
# [16] = 20 Weeks, 10MPK D-PDMP + Fat, n = 5
# [17] = TAC and Apo E−/− mice (high fat and cholesterol diet)
smiles,measurement,setting,value
"CCCCN1C[C@H](O)[C@@H](O)[C@H](O)[C@H]1CO [NB-DNJ, 1,5-(butylimino)-1,5-dideoxy-D-glucitol]",solubility in water,[1],soluble in water
"CCCCCCCCCC(=O)N[C@H](CN1CCOCC1)[C@H](O)c1ccccc1.Cl [D-PDMP, D-threo-1-Phenyl-2-decanoylamino-3-morpholino-1-propanol HCl]",IVSD and PWTED wall thickness at end diastolic phase,"apoE−/− mice [2]; 5-MPK D-PDMP + fat, up to 20 weeks of age",thicker
same,Fractional shortening (FS %) of left ventricle,"apoE−/− mice [2]; 5 MPK + fat, 16 and 20 weeks of age",significant decline
same,Fractional shortening (FS %) vs baseline and control,"apoE−/− mice [2]; 10 MPK + fat, 16 and 20 weeks",did not significantly differ from the baseline and control
same,IVSD and PWTED wall thickness at end diastolic phase (hypertrophied wall),"apoE−/− mice [2]; 10 MPK + fat, up to 20 weeks of age",non hypertrophied
same,Fractional Shortening (%),"apoE−/− mice [2]; 20 Weeks, 10MPK D-PDMP + Fat, n = 5, Mean±SEM",61.77 ± 1.69%
same,fractional shortening,apoE−/− mice [2]; [15],dose-dependent reversal
same,left ventricular mass,apoE−/− mice [2]; [15],dose-dependent reversal
same,heart hypertrophy and dysfunction (M mode ultrasound),"apoE−/− mice [2]; hyperlipidemic diet, dose dependent manner",complete protection
same,activity of lactosylceramide synthase in aorta tissue,"[3]; 5 and 10 mpk, apoE−/− mice, HCl",dose-dependently decreased; also recorded: completely prevented
same,decrease of LCS activity as compared to hyperlipidemic mouse aorta,[3]; 5 mpk D-PDMP,~52%
same,decrease of LCS activity as compared to hyperlipidemic mouse aorta,[3]; 10 mpk D-PDMP,~32%
same,level of phosphorylated p44MAPK in heart tissue,"p44MAPK; 10 mpk, vs placebo",decrease
same,phosphorylation of p44MAPK in heart tissue,p44MAPK; both animal models (apoE−/− and TAC),mitigated
same,fibrosis,apoE−/− mice [4],reduced
same,intimal wall thickness,apoE−/− mice [4],reduced
same,plaque accumulation,apoE−/− mice [4],reduced
same,aortic intima media thickening (AoIMT),apoE−/− mice [5]; 5 MPK + fat,progressively increased
same,aortic intima media thickening (AoIMT),apoE−/− mice [5]; 10 MPK + fat,did not change
same,increase in aortic intima media thickening (IMT) caused by hyperlipidemic diet,apoE−/− mice [5]; dose not stated,reversed
same,activity of glucosylceramide synthase in aorta tissue,[6],dose-dependent decrease in glucosylceramide synthase activity was not observed; also recorded: completely prevented; also recorded: decreased
same,mass of glycosphingolipids in heart tissue,glycosphingolipids [7],inhibits
same,activity of glucosylceramide synthase in heart tissue,[8],dose-dependently decreased
same,solubility in water,[1],soluble in water
same,"Blood Pressure* (mmHg), lower value (marked ^ in Control row)",apoE−/− mice [9]; [16],75.8 ± 11.55 mmHg
same,"Blood Pressure* (mmHg), upper value (marked ** in Control row)",apoE−/− mice [9]; [16],102.98 ± 12.34 mmHg
same,blood pressure,"apoE−/− mice [9]; daily oral gavage, apoE−/− mice on high fat and cholesterol diet",reversed the blood pressure to normal level
same,Catalase mRNA expression level,[10]; TAC and Apo E−/− mice,induces
same,SOD1 mRNA expression level,[10]; TAC and Apo E−/− mice,induces
same,SOD2 mRNA expression level,[10]; TAC and Apo E−/− mice,induces
same,ANP mRNA expression level,[10]; [17],blunted
same,BNP mRNA expression level,[10]; [17],blunted
same,βMHC mRNA expression level,[10]; [17],blunted
same,mRNA levels of collagen type II and III genes,[10]; TAC mice,decreased
same,level of glycosphingolipids,glycosphingolipids [11],decreases
same,TGFβ over expression in hypertrophic mouse heart,TGFβ,mitigated
same,fractional shortening,[12],completely reversed
same,left ventricular mass,[12],completely reversed
same,increase of serum level of oxidized -LDL (about 4-fold on western diet),oxidized -LDL,mitigated
same,activity of lactosylceramide synthase in heart tissue,[13],dose-dependently decreased
same,arterial stiffness (PWV),apoE−/− mice [14],reduces
